{"source": "patent US20140234364A1", "about": "“TOTAL SYNTHESIS AND IMM[…] […] OF THE LIPOPOLY[…] NEISSERIA MENINGITIDIS” (MAX-PLANCK-GESELLSCHAFT ZUR FÖRDERUNG DER WISSENSCHAFTEN …, priority 2011, published 2014)", "system": "female BALB/c mice", "assay": "Immunization of mice in presence of Freund's adjuvant, antibody responses in sera analyzed by glycan microarray", "format": "in vivo", "description": "To evaluate the immunogenicity of the meningococcal tetrasaccharide 1, two groups of six female BALB/c mice, six to eight weeks old, were immunized subcutaneously (s.c.) in presence of Freund's adjuvant (FA). Each mouse of the first group was immunized s.c. with 0.4 μg unconjugated tetrasaccharide 1 antigen in presence of Freund's adjuvant (priming with Freund's Complete Adjuvant, boosting with Freund's Incomplete Adjuvant, both Sigma). Each mouse of the second group received tetrasaccharide 1-CRM197 conjugate, whereby the amount of conjugate corresponded to 0.4 μg tetrasaccharide 1 antigen. Two weeks after initial immunizations, first boosting injection was performed with 4 μg tetrasaccharide 1 or the corresponding tetrasaccharide 1-CRM197 conjugate.\nFor all immunizations, antigen was diluted in sterile PBS to a total injection volume of 100 μL per mouse. Blood was collected at the tail vein and erythrocytes were separated from serum by centrifugation. All blood samples from the initial immunization study with FA were diluted with 10 μl sterile PBS before sera separation. Sera were collected in definited time intervals and IgG antibody responses were analyzed by microarray.\nTetrasaccharide 1 in three different concentrations (1, 0.5 and 0.1 mM), CRM197 (1, 0.5 and 0.1 μM) and bovine serum albumin (BSA)-spacer-GlcNAc conjugate (1, 0.5 and 0.1 μM) were dissolved in sodium phosphate buffer (50 mM, pH 8.5) and printed in triplicate robotically using a piezoelectric spotting device (S11, Scienion, Berlin, Germany) onto the surface of the microarray slides (NHS-activated glass slides; CodeLink). BSA-spacer-GlcNAc was used to assess immunogenicity against the spacer moiety of the conjugate. […]\nThe quenched array slides were blocked for 1 hour with 1% (w/v) BSA in PBS, then washed three times with PBS and dried by centrifugation. […] Then, slides were incubated with fluorescence-labeled detection antibody diluted in 1% BSA-PBS (w/v) for 1 hour at room temperature in a humid chamber. […]"}
{"smiles": "CC(=O)NC1C(O)[C@H](O)C(CO)O[C@@H]1OC1C(O)[C@H](O)C([C@@H](O)CO)O[C@@H]1OC1C(O)[C@@H](O[C@@H]2C(O)C[C@](OCCCCCN)(C(=O)O)OC2[C@H](O)CO)OC([C@@H](O)CO)[C@H]1O", "note": "(stereo partly drawn) [tetrasaccharide 1, 2-N-acetyl-2-deoxy-α-D-glucopyranosyl-(1→2)-L-glycero-α-D-manno-heptopyranosyl-(1→3)-L-glycero-α-D-manno-heptopyranosyl-(1→5)-2-(5-amino)pentyl-3-deoxy-α-D-manno-oct-2-ulopyranosidonic acid]", "values": [{"measurement": "IgG antibody response, anti-tetrasaccharide 1 titers (fluorescence intensity)", "setting": "1:80 sera dilution, after first boosting, Freund's adjuvant", "result": "relatively weak"}, {"measurement": "Tetrasaccharide 1-specific IgG and IgM antibody responses in pooled sera", "setting": "after first boosting with 4 μg (4. week), Freund's adjuvant", "result": "identified"}, {"measurement": "IgG response one week after second boosting", "setting": "second boost 4 μg antigen in week 8, read in week 9", "result": "marginal increase"}]}
